Data from patent publication US20110263647A1 (AMGEN INC., priority 2009, published 2011).
Where a name gives a salt, the structure may show the parent alone.

Assays:
CYP3A4 = molecular target: T1, CYP3A4 (Homo sapiens, UniProt P08684); assay: CYP3A4 inhibition assay (midazolam, pooled human liver microsomes); assay type: in vitro ADME; conditions: pH 7.4, probe midazolam (2.5 μM), test compound 3 μM, human liver microsomes 0.1 mg/mL
T1 construct: tissue XenoTech LLC Lot 0610351; host or cells: pooled human liver microsomes
Method: (§1) Midazolam was obtained from BD Gentest (Waltham, Mass.); 1′ hydroxy midazolam and 1-hydroxy bufuralol maleate were obtained from Ultrafine Chemicals (Manchester, UK); bufuralol HCl, ketoconazole, quinidine, potassium phosphate, and NADPH were obtained from Sigma (St. Louis, Mo.). Test compounds were prepared at 10 mM concentration in DMSO (Mallinckrodt Inc., St. Louis, Mo.). NADPH was prepared at 10 mM concentration in a pH 7.4 buffer (8.3 mg/mL 66.7 mM potassium phosphate). Midazolam was prepared at 1 mM concentration in deionized water (Amgen, Thousand Oaks, Calif.), and bufuralol was prepared at 2 mM concentration in deionized water. A stock solution of ketoconazole was prepared at 37 mM concentration in DMSO, and quinidine was prepared at 500 uM concentration in DMSO. Formic acid in acetonitrile (0.05%, ACN) was used as a quench solution (Sigma-Aldrich, St. Louis, Mo.). All solvents used for LC/MS were of chromatographic grade. Pooled human liver microsomes (Lot 0610351) were purchased from XenoTech LLC, (Lenexa, Kans.).
Pooled human liver microsomes (0.1 mg/mL) were incubated at 37° C. in a phosphate buffer (66.7 mM potassium phosphate at pH 7.4) with the selective CYP3A substrate midazolam at a concentration of 2.5 μM in the presence and absence of test compound (3 μM). The reaction was started with the addition of NADPH (1 mM final concentration). The reaction was stopped after 10 minutes by addition of formic acid in acetonitrile. 1′-Hydroxymidazolam metabolite formation was measured by an HPLC MS detection method (mobile phases were 0.1% AcOH in 5% MeOH, and 0.1% AcOH in 95% MeOH; the HPLC column was an Onyx Monolithic C18 CHO-7645 HPLC column obtained from Phenomenex; Shimadzu LC-10ADVP equipped Biomek FX Liquid handling system and CTC Analytics PAL well auto-sampler; Mass spectrometer: Applied Biosystems API 3000 using Analyst 1.4.1 software). Inhibition was determined by the ratio of the amount of 1′-hydroxy midazolam metabolite formed in the presence of test compound to the amount of metabolite found in the absence of test compound Inhibition was measured relative to the rate of formation of 1′-hydroxy midazolam incubated at 2.5 μM without test compound.

U87MG tumors = assay: U87MG xenograft tumor growth model; assay type: in vivo, Athymic nude mice; conditions: oral 10, 30, 60 and 100 mg/kg/day; 13 days (Example 2), 10 days and 17 days (Example 18)
Method: The effect of PKB inhibition on tumor growth in vivo was assessed in an established U87MG xenograft model for Examples 2 and 18. Athymic nude mice bearing U87MG tumors (approximately 200 mm^3) in the right flank were treated with the compound orally at the dosage of 10, 30, 60, and 100 mg/kg/day (n=10) for 13 days (Example 2) and for 10 days and 17 days (Example 18). Tumor volume and body weight were measured twice per week. Data were expressed as means plus or minus standard errors and plotted as a function of time. Statistical significance of the effect was evaluated by Repeated Measures Analysis of Variance (RMANOVA) followed by Scheffe post hoc testing for multiple comparisons.

CYP2D6 = molecular target: T2, CYP2D6 (Homo sapiens, UniProt P10635); assay: CYP2D6 inhibition assay (bufuralol, pooled human liver microsomes); assay type: in vitro ADME; conditions: pH 7.4, probe bufuralol (5 μM), test compound 3 μM, human liver microsomes 0.25 mg/mL
T2 construct: tissue XenoTech LLC Lot 0610351; host or cells: pooled human liver microsomes
Method: as §1
Pooled human liver microsomes (0.25 mg/mL) were incubated at 37° C. in a phosphate buffer (66.7 mM potassium phosphate at pH 7.4) with the selective CYP2D6 substrate bufuralol at a concentration of 5 μM in the presence and absence of test compound (3 μM). The reaction was started with the addition of NADPH (1 mM final concentration). The reaction was stopped after 10 minutes by addition of formic acid in acetonitrile. 1-Hydroxybufuralol metabolite formation was measured by an HPLC MS detection method (mobile phases for HPLC were: 0.1% AcOH in 5% MeOH, and 0.1% AcOH in 95% MeOH; the HPLC column was an Onyx Monolithic C18 CHO-7645 HPLC column from Phenomenex; Shimadzu LC-10ADVP equipped Biomek FX Liquid handling system and CTC Analytics PAL well auto-sampler; Mass spectrometer: Applied Biosystems API 3000 using Analyst 1.4.1 software). Inhibition was determined by the ratio of the amount of 1-hydroxy bufuralol metabolite formed metabolite in the presence of test compound to the amount of metabolite in the absence of test compound.

T2 sequence (P10635 whole entry): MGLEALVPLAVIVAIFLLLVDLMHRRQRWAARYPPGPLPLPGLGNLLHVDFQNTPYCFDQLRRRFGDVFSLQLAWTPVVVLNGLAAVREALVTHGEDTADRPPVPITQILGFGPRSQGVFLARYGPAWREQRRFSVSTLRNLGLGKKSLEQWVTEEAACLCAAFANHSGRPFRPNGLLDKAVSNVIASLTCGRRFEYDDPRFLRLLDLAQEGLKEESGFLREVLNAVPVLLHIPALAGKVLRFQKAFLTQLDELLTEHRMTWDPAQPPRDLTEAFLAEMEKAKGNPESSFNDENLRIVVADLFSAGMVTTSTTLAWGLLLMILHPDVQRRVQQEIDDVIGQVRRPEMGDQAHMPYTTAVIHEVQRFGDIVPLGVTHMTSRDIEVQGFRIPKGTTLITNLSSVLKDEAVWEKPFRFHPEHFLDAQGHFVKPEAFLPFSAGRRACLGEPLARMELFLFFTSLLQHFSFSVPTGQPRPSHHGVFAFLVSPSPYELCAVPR
T1 sequence (P08684 whole entry): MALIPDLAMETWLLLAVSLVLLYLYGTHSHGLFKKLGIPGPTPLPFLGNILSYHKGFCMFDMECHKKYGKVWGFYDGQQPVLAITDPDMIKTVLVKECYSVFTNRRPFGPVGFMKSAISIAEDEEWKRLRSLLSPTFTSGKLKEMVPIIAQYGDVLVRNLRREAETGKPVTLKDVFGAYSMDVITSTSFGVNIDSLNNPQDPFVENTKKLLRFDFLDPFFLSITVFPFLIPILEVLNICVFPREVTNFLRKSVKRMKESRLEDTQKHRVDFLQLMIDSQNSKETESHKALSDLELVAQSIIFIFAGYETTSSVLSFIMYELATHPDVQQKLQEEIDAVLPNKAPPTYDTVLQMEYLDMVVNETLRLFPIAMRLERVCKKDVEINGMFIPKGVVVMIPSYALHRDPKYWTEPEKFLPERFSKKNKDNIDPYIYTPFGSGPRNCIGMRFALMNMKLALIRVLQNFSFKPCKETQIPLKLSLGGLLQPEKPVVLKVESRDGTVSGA

Compound	inhibition at 10 min, 3 μM (CYP3A4) [%]	inhibition at 10 min, 3 μM (CYP2D6) [%]	tumor growth inhibition (U87MG tumors)
C[C@@H](c1ccc(C(F)(F)F)cc1)[C@H](N)CNc1ncc(-c2ccc3cnc(F)cc3c2)s1 [Example 10, N-((2S,3S)-2-Amino-3-(4-(trifluoromethyl)phenyl)butyl)-5-(3-fluoroisoquinolin-6-yl)thiazol-2-amine]	0	19	
N[C@H](CNc1ncc(-c2ccc3cnc(F)cc3c2)s1)CN1CCC(C(F)(F)F)CC1 [Example 25, N—((R)-2-Amino-3-(4-(trifluoromethyl)piperidin-1-yl)propyl)-5-(3-fluoroisoquinolin-6-yl)thiazol-2-amine]	48	51	
N[C@H](CNc1ncc(-c2ccc3cnc(F)cc3c2)s1)[C@@H](CO)c1ccc(C(F)(F)F)cc1 [Example 33, (2S,3S)-3-Amino-4-(5-(3-fluoroisoquinolin-6-yl)thiazol-2-ylamino)-2-(4-(trifluoromethyl)phenyl)butan-1-ol]	48	49	
N[C@H](CCc1ncc(-c2ccc3cnc(F)cc3c2)s1)[C@@H](O)c1ccc(C(F)(F)F)cc1 [Example 36, (1S,2R)-2-Amino-4-(5-(3-fluoroisoquinolin-6-yl)thiazol-2-yl)-1-(4-(trifluoromethyl)phenyl)butan-1-ol trifluoroacetate]	0	27	
CC(F)(F)c1ccc([C@H](O)[C@H](N)CNc2ncc(-c3ccc4cnc(F)cc4c3)s2)cc1 [Example 38, (1S,2R)-2-Amino-1-(4-(1,1-difluoroethyl)phenyl)-3-((5-(3-fluoro-6-isoquinolinyl)-1,3-thiazol-2-yl)amino)-1-propanol trifluoroacetate]	9	44	

More lines, main results first:

inhibition at 10 min, 3 μM (CYP3A4) [%]	inhibition at 10 min, 3 μM (CYP2D6) [%]	Compound	tumor growth inhibition (U87MG tumors)
75	53	N[C@H](CNc1ncc(-c2ccc3cnc(F)cc3c2)s1)Cc1ccc(C(F)(F)F)nc1 [Example 2, (2S)—N-(5-(3-Fluoro-6-isoquinolinyl)-1,3-thiazol-2-yl)-3-(6-(trifluoromethyl)-3-pyridinyl)-1,2-propanediamine]	Dose dependent tumor growth inhibition
0	44	N[C@H](CNc1ncc(-c2ccc3cnc(F)cc3c2)s1)Cc1ccc(C(F)(F)F)cc1 [Example 4, N—((S)-2-Amino-3-(4-(trifluoromethyl)phenyl)propyl)-5-(3-fluoroisoquinolin-6-yl)thiazol-2-amine trifluoroacetate]	
13	23	CC(F)(F)c1ccc(C[C@H](N)CNc2ncc(-c3ccc4cnc(F)cc4c3)s2)cn1 [Example 7, N—((S)-2-Amino-3-(6-(1,1-difluoroethyl)pyridin-3-yl)propyl)-5-(3-fluoroisoquinolin-6-yl)thiazol-2-amine]	
0	75	COCc1nc(NC[C@@H](N)Cc2ccc(C(F)(F)F)nc2)sc1-c1ccc2cnc(F)cc2c1 [Example 18, N—((S)-2-Amino-3-(6-(trifluoromethyl)pyridin-3-yl)propyl)-5-(3-fluoroisoquinolin-6-yl)-4-(methoxymethyl)thiazol-2-amine]	Dose dependent tumor growth inhibition
48	42	N[C@H](CNc1ncc(-c2ccc3cnc(F)cc3c2)s1)Cc1ccc(Cl)c(F)c1 [Example 44, (2S)-3-(4-Chloro-3-fluorophenyl)-N-1-(5-(3-fluoro-6-isoquinoliny)-1,3-thiazol-2-yl)-1-2-propanediamine]	
21	71	CC(F)(F)c1ccc(C[C@H](N)CCc2ncc(-c3ccc4cnc(F)cc4c3)s2)cn1 [Example 50]	
